Results: patent publication US20230104936A1, “TRPML MODULATORS” (Casma Therapeutics, Inc., priority 2019, published 2023)

tested on: TFEB; assay: TFEB nuclear translocation assay, HeLa wt cells; assay type: cell-based; settings: Homo sapiens, HeLa, 2 h, 2 hrs compound treatment, Table 1 does not say HeLa wt or TRPML1 KO
In short: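 HeLa wt, 2 hr compound, 37° C; 4% PFA fix; anti-TFEB (rabbit, 1:200, overnight 4° C) + Alexa 488 secondary, Hoechst. Imaged ×20, 4 fields/well. Readout: nuclear/ring Alexa 488 intensity ratio; AC50.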

Row | SMILES | AC50 [µM]
1 | O=S(=O)(Nc1ccccc1N1CCC(c2ccc(F)cc2F)CC1)c1ccc(C(F)F)cn1 [Compound A-137, 5-(difluoromethyl)-N-{2-[4-(2,4-difluorophenyl)piperidin-1-yl]phenyl}pyridine-2-sulfonamide] | 2.01 to 8
2 | Cc1ccc(S(=O)(=O)Cc2ccccc2N2CCC(c3ccc(Cl)cc3F)CC2)cc1 [Compound A-138, 4-(4-chloro-2-fluorophenyl)-1-(2-(tosylmethyl)phenyl)piperidine] | ≤ 2
3 | CN(C)S(=O)(=O)c1ccc(S(=O)(=O)Nc2ccnnc2N2CCC(c3ccc(Cl)cc3F)CC2)cc1 [Compound A-139, N4-{3-[4-(4-chloro-2-fluorophenyl)piperidin-1-yl]pyridazin-4-yl}-N1,N1-dimethylbenzene-1,4-disulfonamide] | ≥ 10
4 | COc1ccc(S(=O)(=O)Nc2ccc3c(cnn3C)c2N2CCN(c3ncc(Cl)cc3F)CC2)cc1 [Compound A-140, N-{4-[4-(5-chloro-3-fluoropyridin-2-yl)piperazin-1-yl]-1-methyl-1H-indazol-5-yl}-4-methoxybenzene-1-sulfonamide] | ≤ 2
5 | CN(C)S(=O)(=O)c1ccc(S(=O)(=O)Nc2ccccc2N2CCC(O)(c3ccc(F)cc3F)CC2)cc1 [Compound A-141, N4-{2-[4-(2,4-difluorophenyl)-4-hydroxypiperidin-1-yl]phenyl}-N1,N1-dimethylbenzene-1,4-disulfonamide] | ≤ 2
6 | CS(=O)(=O)c1ccc(S(=O)(=O)Nc2ccccc2N2CCC(O)(c3ccc(Cl)cc3F)CC2)cc1 [Compound A-142, N-{2-[4-(4-chloro-2-fluorophenyl)-4-hydroxypiperidin-1-yl]phenyl}-4-methanesulfonylbenzene-1-sulfonamide] | 2.01 to 8
7 | CN(C)S(=N)(=O)c1ccc(S(=O)(=O)Nc2ccccc2N2CCC(O)(c3ccc(Cl)cc3F)CC2)cc1 (centres unmarked) [Compound A-143, 4-({2-[4-(4-chloro-2-fluorophenyl)-4-hydroxypiperidin-1-yl]phenyl}sulfamoyl)-N,N-dimethylbenzene-1-sulfonoimidamide] | ≤ 2
8 | Cc1ccc([S+]([O-])c2ccccc2N2CCC(c3ccc(Cl)cc3F)CC2)cc1 (centres unmarked) [Compound A-144, 4-(4-chloro-2-fluorophenyl)-1-(2-(p-tolylsulfinyl)phenyl)piperidine] | ≥ 10
9 | Cc1ccc([S+]([O-])Cc2ccccc2N2CCC(c3ccc(Cl)cc3F)CC2)cc1 (centres unmarked) [Compound A-145, 4-(4-chloro-2-fluorophenyl)-1-(2-((p-tolylsulfinyl)methyl)phenyl)piperidine] | ≥ 10
10 | CN1c2ccccc2N(S(=O)(=O)c2ccc(S(=O)(=O)N(C)C)cc2)CC1c1ccc(Cl)cc1F (centres unmarked) [Compound A-146, 4-{[3-(4-chloro-2-fluorophenyl)-4-methyl-1,2,3,4-tetrahydroquinoxalin-1-yl]sulfonyl}-N,N-dimethylbenzene-1-sulfonamide] | ≤ 2
11 | COc1ccc(S(=O)(=O)Nc2ccccc2N2CCC(c3ncc(Cl)cc3F)CC2)cc1 [Compound A-147, N-{2-[4-(5-chloro-3-fluoropyridin-2-yl)piperidin-1-yl]phenyl}-4-methoxybenzene-1-sulfonamide] | 2.01 to 8
12 | CN(C)S(=O)(=O)c1ccc(S(=O)(=O)Nc2ccccc2N2CCC(O)(c3ccccc3)CC2)cc1 [Compound A-148, N4-[2-(4-hydroxy-4-phenylpiperidin-1-yl)phenyl]-N1,N1-dimethylbenzene-1,4-disulfonamide] | ≤ 2
13 | CN(C)S(=O)(=O)c1ccc(S(=O)(=O)Nc2ccccc2N2CCC(c3ccc(Cl)cc3F)CC2)c(F)c1 [Compound A-149, N4-{2-[4-(4-chloro-2-fluorophenyl)piperidin-1-yl]phenyl}-3-fluoro-N1,N1-dimethylbenzene-1,4-disulfonamide] | ≤ 2
14 | CN(C)S(=O)(=O)c1ccc(S(=O)(=O)Nc2ccccc2N2CCC(N)(c3ccc(Cl)cc3F)CC2)cc1 [Compound A-150, N4-{2-[4-amino-4-(4-chloro-2-fluorophenyl)piperidin-1-yl]phenyl}-N1,N1-dimethylbenzene-1,4-disulfonamide] | ≤ 2
